{"source": "patent US9572817B2", "about": "“Use of androgens for vascular regeneration and endothelial repair” (THE HEART RESEARCH INSTITUTE LTD., priority 2008, dated 2017)", "key": {"[1]": {"details": "intramuscular injection; cited from earlier work"}, "Male C57B16/J mice [2]": {"test_system": "Male C57B16/J mice", "details": "castrate+DHT male mice, after 7 days; control 0.39±0.03", "from_the_text": "(§1) Male C57B16/J mice were either castrated or sham-castrated after reaching sexual maturity (6 weeks). After a period of 10 days, 50% of both castrated and sham-castrated mice received a 1 cm subcutaneous silastic implant containing DHT."}, "HUVECs [3]": {"test_system": "HUVECs", "test": "EC proliferation (direct counting of cell numbers and MTS Assay)", "format": "cell-based, Human", "protocol": "(§2) The effect of the non-aromatizable androgen dihydrotestosterone was assessed on three key angiogenic processes: endothelial cell (EC) migration, EC proliferation and EC tubulogenesis. Cells were treated with 0, 4, 40 or 400 nM dihydrotestosterone (DHT, a potent androgen) with and without the androgen-receptor antagonist hydroxyflutamide (HF).\nEC proliferation was assessed using two methods: direct counting of cell numbers and the MTS Assay. HUVECs were seeded at a density of 1×10^4 cells/ml (12 well plates for counting, 96 well plates for MTS assay) in endothelial growth media in the presence of varying doses DHT±Hydroxyflutamide (HF). After 48 h, cells were either harvested from 12 well plates and counted or incubated with MTS reagent in the 96 well plates with absorbance measured subsequently at 490 nm measured."}, "Male C57B16/J mice [4]": {"test_system": "Male C57B16/J mice", "details": "castrate+DHT", "from_the_text": "as §1\nMononuclear cells were harvested from the spleens and bone marrow of all animals and assessed via cell culture and flow cytometry. Cells were and stained with fluorescein isothiocyanate-lectin and/or 1,1(-dioctadecyl-3,3,3(,3(-tetramethylindocarbocyanine (DiI)-labelled, acetylated low-density lipoprotein (Vasa M, et al. Number and migratory activity of circulating endothelial progenitor cells inversely correlate with risk factors for coronary artery disease. Circ Res. 2001; 89:e1-e7)."}, "[5]": {"test_system": "Human Umbilical Endothelial Cells (HUVEC)", "test": "EC migration (scratch assay and boyden chamber assay)", "format": "cell-based", "protocol": "as §2\nEC migration was assessed via a scratch assay and boyden chamber assay. Human Umbilical Endothelial Cells (HUVEC) monolayers were grown in the presence of varying doses of DHT±Hydroxyflutamide (HF), and either scratched or placed on top of permeable membranes. EC migration across the culture surface or through the membranes was assessed at 24 h and 6 h respectively via light and fluorescence microscopy respectively."}, "HUVECs [6]": {"test_system": "HUVECs", "test": "EC tubulogenesis (co-culture assay of fibroblasts and ECs)", "format": "cell-based, Human", "details": "for EC tubulogenesis vs. 100% control value: donor cells; for tubule formation vs. 100% control value: male EC, chronic exposure (72 h)", "protocol": "The effect of the non-aromatizable androgen dihydrotestosterone was assessed on three key angiogenic processes: endothelial cell (EC) migration, EC proliferation and EC tubulogenesis.\nCo-cultures were grown in the presence of DHT±Hydroxyflutamide (HF). After 72 h, co-cultures were assessed using immunohistochemistry for EC specific markers and image analysis software."}}, "note": "Where two headings read alike, the source gives them in different places.", "data": [{"smiles": "CCCCCCC(=O)O[C@H]1CC[C@H]2[C@@H]3CCC4=CC(=O)CC[C@]4(C)[C@H]3CC[C@]12C", "note": "[Testosterone enanthate]", "values": [{"measurement": "time to peak serum testosterone levels after administration", "setting": "[1]", "result": 24, "unit": "h"}]}, {"smiles": "C[C@]12CCC(=O)C[C@@H]1CC[C@@H]1[C@@H]2CC[C@]2(C)[C@@H](O)CC[C@@H]12", "note": "[DHT, 5α-dihydrotestosterone]", "values": [{"measurement": "Laser Doppler Perfusion Index (LDPI) ischemic/non-ischemic ratio", "setting": "Male C57B16/J mice [2]", "result": "0.6±0.06"}, {"measurement": "EC proliferation vs. 100% control value", "setting": "HUVECs [3]; donor cells, DHT 4 nM", "result": "92±5", "unit": "%"}, {"measurement": "EC proliferation vs. 100% control value", "setting": "HUVECs [3]; donor cells, DHT 40 nM", "result": "92±3", "unit": "%"}, {"measurement": "EC proliferation vs. 100% control value", "setting": "HUVECs [3]; donor cells, DHT 400 nM", "result": "89±6", "unit": "%"}, {"measurement": "EC proliferation vs. 100% control value", "setting": "HUVECs [3]; male EC, DHT 4 nM, after 48 h", "result": "112±8", "unit": "%"}, {"measurement": "EC proliferation vs. 100% control value", "setting": "HUVECs [3]; male EC, DHT 40 nM, after 48 h", "result": "118±5", "unit": "%"}, {"measurement": "EC proliferation vs. 100% control value", "setting": "HUVECs [3]; male EC, DHT 400 nM, after 48 h", "result": "127±4", "unit": "%"}, {"measurement": "spleen angiogenic cells", "setting": "Male C57B16/J mice [4]; absence of ischaemia, control 15.4±1, castrated 10.3±0.9", "result": "10±0.9 Angiogenic cells/×200 field"}, {"measurement": "spleen angiogenic cells", "setting": "Male C57B16/J mice [4]; presence of ischaemia, control 22±1.7, castrated 16±0.8", "result": "26±1.3 Angiogenic cells/×200 field"}, {"measurement": "bone marrow angiogenic cells", "setting": "Male C57B16/J mice [4]; presence of ischaemia, control 60±2.4, castrate 26±1.7", "result": "36±3 Angiogenic cells/×200 field"}, {"measurement": "EC migration vs. 100% control value", "setting": "[5]; donor cells, DHT 4 nM", "result": "90±5", "unit": "%"}, {"measurement": "EC migration vs. 100% control value", "setting": "[5]; donor cells, DHT 40 nM", "result": "96±5", "unit": "%"}, {"measurement": "EC migration vs. 100% control value", "setting": "[5]; donor cells, DHT 400 nM", "result": "93±8", "unit": "%"}, {"measurement": "EC migration vs. 100% control value", "setting": "[5]; male EC, DHT 4 nM, after 24 h", "result": "138±7", "unit": "%"}, {"measurement": "EC migration vs. 100% control value", "setting": "[5]; male EC, DHT 40 nM, after 24 h", "result": "280±23", "unit": "%"}, {"measurement": "EC migration vs. 100% control value", "setting": "[5]; male EC, DHT 400 nM, after 24 h", "result": "306±32", "unit": "%"}, {"measurement": "EC tubulogenesis vs. 100% control value", "setting": "HUVECs [6]; DHT 4 nM", "result": "92±3", "unit": "%"}, {"measurement": "EC tubulogenesis vs. 100% control value", "setting": "HUVECs [6]; DHT 40 nM", "result": "90±3", "unit": "%"}, {"measurement": "EC tubulogenesis vs. 100% control value", "setting": "HUVECs [6]; DHT 400 nM", "result": "92±3", "unit": "%"}, {"measurement": "tubule formation vs. 100% control value", "setting": "HUVECs [6]; DHT 4 nM", "result": "115±7", "unit": "%"}, {"measurement": "tubule formation vs. 100% control value", "setting": "HUVECs [6]; DHT 40 nM", "result": "137±5", "unit": "%"}, {"measurement": "tubule formation vs. 100% control value", "setting": "HUVECs [6]; DHT 400 nM", "result": "157±6", "unit": "%"}]}]}
